From ChEMBL document CHEMBL1145238, “Selective PPARgamma modulators with improved pharmacological profiles” (Bioorg Med Chem Lett, 2005)

Experiments:
[1] = target: T1, Peroxisome proliferator-activated receptor gamma (Homo sapiens, UniProt P37231); assay: Inhibition of human peroxisome proliferator activated receptor gamma binding
T1 sequence (P37231 whole entry): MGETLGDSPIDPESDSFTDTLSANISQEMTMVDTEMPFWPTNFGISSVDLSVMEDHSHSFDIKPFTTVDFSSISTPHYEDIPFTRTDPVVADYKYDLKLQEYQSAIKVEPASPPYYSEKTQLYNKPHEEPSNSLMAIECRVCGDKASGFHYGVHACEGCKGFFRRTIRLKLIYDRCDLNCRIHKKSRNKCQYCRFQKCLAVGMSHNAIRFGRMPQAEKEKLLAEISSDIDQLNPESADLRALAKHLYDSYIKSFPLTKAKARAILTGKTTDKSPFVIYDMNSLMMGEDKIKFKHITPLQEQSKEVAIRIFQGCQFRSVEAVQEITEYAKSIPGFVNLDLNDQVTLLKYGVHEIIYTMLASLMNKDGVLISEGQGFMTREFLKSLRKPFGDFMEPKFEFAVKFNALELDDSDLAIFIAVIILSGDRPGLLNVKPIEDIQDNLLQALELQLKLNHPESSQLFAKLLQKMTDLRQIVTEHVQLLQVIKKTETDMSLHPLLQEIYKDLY

[2] = target: T1, Peroxisome proliferator-activated receptor gamma
Description: Maximal intrinsic response against peroxisome proliferator activated receptor gamma transactivation

[3] = target: Cytochrome P450 2C9 (Homo sapiens, UniProt P11712); assay: Inhibitory concentration against Cytochrome P450 2C9 in rats
[4] = Area under plasma concentration time curve when administered to Sprague Dawley rats after once daily dosing for two weeks; type: ADME; conditions: rat
[5] = Area under plasma concentration time curve when administered to db/db mice at 30 mg/kg dose; type: ADME, organism-based; design: dose 30 mg/kg; conditions: mouse, in vivo
[6] = mouse, in vivo, 10 mg/kg

Cytochrome P450 2C9, sequence (P11712 whole entry): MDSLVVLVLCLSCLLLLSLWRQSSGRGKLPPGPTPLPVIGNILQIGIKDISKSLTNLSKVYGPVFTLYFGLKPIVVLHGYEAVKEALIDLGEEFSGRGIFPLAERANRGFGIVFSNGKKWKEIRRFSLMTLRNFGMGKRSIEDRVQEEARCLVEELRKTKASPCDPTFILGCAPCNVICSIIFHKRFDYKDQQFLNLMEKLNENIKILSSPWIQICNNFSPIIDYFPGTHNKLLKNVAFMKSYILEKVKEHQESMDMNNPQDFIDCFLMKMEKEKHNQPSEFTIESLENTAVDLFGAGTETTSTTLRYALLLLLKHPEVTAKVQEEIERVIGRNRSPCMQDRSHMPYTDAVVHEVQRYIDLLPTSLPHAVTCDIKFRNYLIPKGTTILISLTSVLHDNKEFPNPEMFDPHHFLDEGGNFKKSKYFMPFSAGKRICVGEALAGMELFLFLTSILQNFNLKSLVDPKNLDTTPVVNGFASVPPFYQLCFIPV

IC50 [1]	EC50 [2]	Compound	further results
5 nM	3 nM	Cc1c(Oc2cc(O[C@@H](C)C(=O)O)ccc2Cl)c2cc(OC(F)(F)F)ccc2n1-c1noc2cc(Cl)ccc12	–
20 nM	39 nM	CCCc1ccc(Oc2c(C)n(-c3noc4cc(Cl)ccc34)c3ccc(OC(F)(F)F)cc23)cc1O[C@@H](C)C(=O)O	–
42 nM	16 nM	COc1ccc(C(=O)n2c(C)c(Cc3cccc(OCC#N)c3)c3cc(OC(F)(F)F)ccc32)cc1	–
109 nM	114 nM	Cc1c(Oc2cc(Cl)cc(O[C@@H](C)C(=O)O)c2)c2cc(OC(F)(F)F)ccc2n1-c1noc2cc(Cl)ccc12	–
33 nM	195 nM	Cc1c(Oc2cccc(O[C@@H](C)C(=O)O)c2)c2cc(OC(F)(F)F)ccc2n1-c1noc2cc(Cl)ccc12	–

Continued, compound first:

Compound	IC50 [1]	EC50 [2]	further results
Cc1[nH]c2ccc(OC(F)(F)F)cc2c1Cc1cccc(O[C@@H](C)C(=O)O)c1	–	–	IC50 [3]: 50 nM
CN1C(=O)SC(Cc2ccc(OCCN(C)c3ccccn3)cc2)C1=O (stereo not given)	> 50000 nM	> 3000 nM	–
COc1ccc(-n2c(C)c(Cc3cccc(O[C@@H](C)C(=O)O)c3)c3cc(OC(F)(F)F)ccc32)cc1	1 nM	3 nM	–
COc1ccc2ncc(-n3c(C)c(Cc4cccc(O[C@@H](C)C(=O)O)c4)c4cc(OC(F)(F)F)ccc43)cc2c1	29 nM	49 nM	–
COc1ccc2c(-n3c(C)c(Cc4cc(O[C@H](C)C(=O)O)ccc4Cl)c4cc(OC(F)(F)F)ccc43)noc2c1	2 nM	3 nM	AUC [4]: 1030 uMh; AUC [5]: 660 uMh
CCCc1c(Oc2c(C)n(-c3noc4cc(Cl)ccc34)c3ccc(OC(F)(F)F)cc23)cccc1O[C@@H](C)C(=O)O	641 nM	–	–
CN(CCOc1ccc(CC2SC(=O)NC2=O)cc1)c1ccccn1 (stereo not given) [ROSIGLITAZONE]	–	–	AUC [4]: 2700 uMh; AUC [6]: 700 uMh
Cc1c(Cc2cccc(O[C@@H](C)C(=O)O)c2)c2cc(OC(F)(F)F)ccc2n1-c1ccccn1	466 nM	–	–
Cc1c(Oc2ccc(Cl)c(O[C@@H](C)C(=O)O)c2)c2cc(OC(F)(F)F)ccc2n1-c1noc2cc(Cl)ccc12	1 nM	3 nM	–
COc1ccc2nc(-n3c(C)c(Cc4cccc(O[C@@H](C)C(=O)O)c4)c4cc(OC(F)(F)F)ccc43)ccc2c1	135 nM	–	–
C#CCOc1cccc(Cc2c(C)n(C(=O)c3ccc(OC)cc3)c3ccc(OC(F)(F)F)cc23)c1	62 nM	31 nM	–
